Assay results: patent US20260083851A1 (AVILAR THERAPEUTICS, INC., priority 2022, published 2026)
Read-outs that look alike come from different tables or passages of the source.

Molecular target: T1, ASGP receptor (biotinylated ASGPR) (Homo sapiens, UniProt P07306)
T1 construct: biotin (biotinylated)
T1 sequence (P07306 1-291): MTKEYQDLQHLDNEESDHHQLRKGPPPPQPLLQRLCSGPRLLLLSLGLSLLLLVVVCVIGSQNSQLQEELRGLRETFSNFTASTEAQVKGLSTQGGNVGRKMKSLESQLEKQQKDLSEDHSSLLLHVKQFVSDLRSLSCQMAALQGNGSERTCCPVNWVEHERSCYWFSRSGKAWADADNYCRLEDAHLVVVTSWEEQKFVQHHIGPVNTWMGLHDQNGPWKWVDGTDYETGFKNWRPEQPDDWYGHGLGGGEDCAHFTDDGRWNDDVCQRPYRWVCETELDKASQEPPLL
Assay type: binding
Conditions: SPR, Biacore 8K, 25° C., Table 1C, read-out: ASGPR KD

Row | Kd | Kd (numeric bound) | SMILES
1 | < 10 µM | – | O=C(O)c1cnc(OC[C@H]2OC[C@H](Nc3cncc(C(F)(F)F)n3)[C@@H](O)[C@H]2O)nc1 [A194, 2-(((2R,3R,4R,5S)-3,4-dihydroxy-5-((6-(trifluoromethyl)pyrazin-2-yl)amino)tetrahydro-2H-pyran-2-yl)methoxy)pyrimidine-5-carboxylic acid]
2 | < 10 µM | – | CC(C)(C)OC(=O)N1CC=C(c2cccc(N[C@H]3CO[C@H](CO)[C@H](O)[C@@H]3O)n2)CC1 [A195, tert-butyl 6-(((3S,4R,5R,6R)-4,5-dihydroxy-6-(hydroxymethyl)tetrahydro-2H-pyran-3-yl)amino)-3′,6′-dihydro-[2,4′-bipyridine]-1′(2′H)-carboxylate]
3 | < 10 µM | – | O[C@@H]1[C@H](O)[C@@H](Nc2cccc(C(F)(F)F)n2)CO[C@@H]1COc1ccc(-c2ccccc2)cc1 [A196, (2R,3R,4R,5S)-2-(([1,1′-biphenyl]-4-yloxy)methyl)-5-((6-(trifluoromethyl)pyridin-2-yl)amino)tetrahydro-2H-pyran-3,4-diol]
4 | – | > 30 µM | OC[C@H]1OC[C@H](Nc2ncc3nc[nH]c3n2)[C@@H](O)[C@H]1O [A197, (2R,3R,4R,5S)-5-((9H-purin-2-yl)amino)-2-(hydroxymethyl)tetrahydro-2H-pyran-3,4-diol]
5 | < 10 µM | – | O[C@@H]1[C@H](O)[C@@H](Oc2cccc(C(F)(F)F)n2)CO[C@@H]1COc1ccc(Br)c(F)c1 [A198, (2R,3R,4S,5S)-2-((4-bromo-3-fluorophenoxy)methyl)-5-((6-(trifluoromethyl)pyridin-2-yl)oxy)tetrahydro-2H-pyran-3,4-diol]
6 | < 10 µM | – | O=C(O)c1ccc(CN2CCN(C[C@H]3OC[C@H](Nc4cncc(C(F)(F)F)n4)[C@@H](O)[C@H]3O)CC2)cc1 [A199, 4-((4-(((2R,3R,4R,5S)-3,4-dihydroxy-5-((6-(trifluoromethyl)pyrazin-2-yl)amino)tetrahydro-2H-pyran-2-yl)methyl)piperazin-1-yl)methyl)benzoic acid]
7 | < 10 µM | – | O[C@@H]1[C@H](O)[C@@H](Nc2cncc(C(F)(F)F)n2)CO[C@@H]1c1cn(C2CCNCC2)nn1 [A200, (2R,3R,4R,5S)-2-(1-(piperidin-4-yl)-1H-1,2,3-triazol-4-yl)-5-((6-(trifluoromethyl)pyrazin-2-yl)amino)tetrahydro-2H-pyran-3,4-diol]
8 | < 10 µM | – | O[C@@H]1[C@H](O)[C@@H](Nc2cncc(C(F)(F)F)n2)CO[C@@H]1c1cn(-c2ccccc2)nn1 [A201, (2R,3R,4R,5S)-2-(1-phenyl-1H-1,2,3-triazol-4-yl)-5-((6-(trifluoromethyl)pyrazin-2-yl)amino)tetrahydro-2H-pyran-3,4-diol]
9 | < 10 µM | – | O[C@@H]1[C@H](O)[C@@H](Nc2cncc(C(F)(F)F)n2)CO[C@@H]1COc1ccc(-c2ccccc2)cc1 [A202, (2R,3R,4R,5S)-2-(([1,1′-biphenyl]-4-yloxy)methyl)-5-((6-(trifluoromethyl)pyrazin-2-yl)amino)tetrahydro-2H-pyran-3,4-diol]
10 | < 10 µM | – | N#Cc1ncc(OC[C@H]2OC[C@H](Nc3cncc(C(F)(F)F)n3)[C@@H](O)[C@H]2O)cn1 [A203, 5-(((2R,3R,4R,5S)-3,4-dihydroxy-5-((6-(trifluoromethyl)pyrazin-2-yl)amino)tetrahydro-2H-pyran-2-yl)methoxy)pyrimidine-2-carbonitrile]
11 | < 10 µM | – | O=C(O)c1ccc(CN2CCN(C[C@H]3OC[C@H](Nc4cncc(C(F)(F)F)n4)[C@@H](O)[C@H]3O)CC2)cc1F [A204, 4-((4-(((2R,3R,4R,5S)-3,4-dihydroxy-5-((6-(trifluoromethyl)pyrazin-2-yl)amino)tetrahydro-2H-pyran-2-yl)methyl)piperazin-1-yl)methyl)-2-fluorobenzoic acid]
12 | < 10 µM | – | O=C(O)c1ccc(CN2CCN(C[C@H]3OC[C@H](Nc4cncc(C(F)(F)F)n4)[C@@H](O)[C@H]3O)CC2)nn1 [A205, 6-((4-(((2R,3R,4R,5S)-3,4-dihydroxy-5-((6-(trifluoromethyl)pyrazin-2-yl)amino)tetrahydro-2H-pyran-2-yl)methyl)piperazin-1-yl)methyl)pyridazine-3-carboxylic acid]
13 | < 10 µM | – | O=C(O)CN1CCC(N2CCN(C[C@H]3OC[C@H](Nc4cncc(C(F)(F)F)n4)[C@@H](O)[C@H]3O)CC2)CC1 [A206, 2-(4-(4-(((2R,3R,4R,5S)-3,4-dihydroxy-5-((6-(trifluoromethyl)pyrazin-2-yl)amino)tetrahydro-2H-pyran-2-yl)methyl)piperazin-1-yl)piperidin-1-yl)acetic acid]
14 | < 10 µM | – | O=C(O)c1ccc(N2CCN(C[C@H]3OC[C@H](Nc4cncc(C(F)(F)F)n4)[C@@H](O)[C@H]3O)CC2)nn1 [A207, 6-(4-(((2R,3R,4R,5S)-3,4-dihydroxy-5-((6-(trifluoromethyl)pyrazin-2-yl)amino)tetrahydro-2H-pyran-2-yl)methyl)piperazin-1-yl)pyridazine-3-carboxylic acid]
15 | – | > 30 µM | OC[C@H]1O[C@@H](c2ccccc2)[C@H](Oc2cccc(C(F)(F)F)n2)[C@@H](O)[C@H]1O [A208, (2R,3R,4S,5R,6S)-2-(hydroxymethyl)-6-phenyl-5-((6-(trifluoromethyl)pyridin-2-yl)oxy)tetrahydro-2H-pyran-3,4-diol]
16 | < 10 µM | – | O[C@@H]1[C@H](O)[C@@H](Nc2cncc(C(F)(F)F)n2)CO[C@@H]1Cc1nnc(-c2ccccc2)o1 [A209, (2R,3R,4R,5S)-2-((5-phenyl-1,3,4-oxadiazol-2-yl)methyl)-5-((6-(trifluoromethyl)pyrazin-2-yl)amino)tetrahydro-2H-pyran-3,4-diol]
17 | < 10 µM | – | O[C@@H]1[C@H](O)[C@@H](Oc2cncc(C(F)(F)F)n2)CO[C@@H]1COc1ccc(Br)c(F)c1 [A210, (2R,3R,4S,5S)-2-((4-bromo-3-fluorophenoxy)methyl)-5-((6-(trifluoromethyl)pyrazin-2-yl)oxy)tetrahydro-2H-pyran-3,4-diol]
18 | < 10 µM | – | O[C@@H]1[C@H](O)[C@@H](Nc2cncc(C(F)(F)F)n2)CO[C@@H]1COc1cccnn1 [A212, (2R,3R,4R,5S)-2-((pyridazin-3-yloxy)methyl)-5-((6-(trifluoromethyl)pyrazin-2-yl)amino)tetrahydro-2H-pyran-3,4-diol]
19 | < 10 µM | – | CC(C)(C)OC(=O)N1CCN(c2ccc(OC[C@H]3OC[C@H](Oc4cccc(C(F)(F)F)n4)[C@@H](O)[C@H]3O)cc2F)CC1 [A213, tert-butyl 4-(4-(((2R,3R,4S,5S)-3,4-dihydroxy-5-((6-(trifluoromethyl)pyridin-2-yl)oxy)tetrahydro-2H-pyran-2-yl)methoxy)-2-fluorophenyl) piperazine-1-carboxylate]
20 | < 10 µM | – | C#C[C@H]1O[C@H](C)[C@H](O)[C@H](O)[C@H]1Oc1cccc(C(F)(F)F)n1 [A214, (2R,3R,4S,5R,6R)-6-ethynyl-2-methyl-5-((6-(trifluoromethyl)pyridin-2-yl)oxy)tetrahydro-2H-pyran-3,4-diol]
21 | < 10 µM | – | O=C(O)c1ccc(-c2ccc(OC[C@H]3OC[C@H](Nc4cncc(C(F)(F)F)n4)[C@@H](O)[C@H]3O)cc2)cc1 [A215, 4′-(((2R,3R,4R,5S)-3,4-dihydroxy-5-((6-(trifluoromethyl)pyrazin-2-yl)amino)tetrahydro-2H-pyran-2-yl)methoxy)-[1,1′-biphenyl]-4-carboxylic acid]
22 | < 10 µM | – | O[C@@H]1[C@H](O)[C@@H](Oc2cccc(C(F)(F)F)n2)CO[C@@H]1COc1cccnn1 [A216, (2R,3R,4S,5S)-2-((pyridazin-3-yloxy)methyl)-5-((6-(trifluoromethyl)pyridin-2-yl)oxy)tetrahydro-2H-pyran-3,4-diol]
23 | < 10 µM | – | C[C@H]1O[C@H](c2cn(C3CCN(C(=O)OC(C)(C)C)CC3)nn2)[C@H](Oc2cccc(C(F)(F)F)n2)[C@@H](O)[C@H]1O [A217, tert-butyl 4-(4-((2R,3R,4S,5R,6R)-4,5-dihydroxy-6-methyl-3-((6-(trifluoromethyl)pyridin-2-yl)oxy)tetrahydro-2H-pyran-2-yl)-1H-1,2,3-triazol-1-yl)piperidine-1-carboxylate]
24 | < 10 µM | – | C[C@H]1O[C@H](c2cn(C3CCNCC3)nn2)[C@H](Oc2cccc(C(F)(F)F)n2)[C@@H](O)[C@H]1O [A218, (2R,3R,4S,5R,6R)-2-methyl-6-(1-(piperidin-4-yl)-1H-1,2,3-triazol-4-yl)-5-((6-(trifluoromethyl)pyridin-2-yl)oxy)tetrahydro-2H-pyran-3,4-diol]
25 | < 10 µM | – | C#C[C@H]1OC[C@H](Oc2cccc(C(F)(F)F)n2)[C@@H](O)[C@H]1O [A219, (2R,3R,4S,5S)-2-ethynyl-5-((6-(trifluoromethyl)pyridin-2-yl)oxy)tetrahydro-2H-pyran-3,4-diol]
26 | < 10 µM | – | CC(C)(C)OC(=O)N1CCC(n2cc([C@H]3OC[C@H](Oc4cccc(C(F)(F)F)n4)[C@@H](O)[C@H]3O)nn2)CC1 [A220, tert-butyl 4-(4-((2R,3R,4S,5S)-3,4-dihydroxy-5-((6-(trifluoromethyl)pyridin-2-yl)oxy)tetrahydro-2H-pyran-2-yl)-1H-1,2,3-triazol-1-yl)piperidine-1-carboxylate]
27 | < 10 µM | – | O=C(O)c1ccc(-c2ccc(OC[C@H]3OC[C@H](Oc4cccc(C(F)(F)F)n4)[C@@H](O)[C@H]3O)cc2)nn1 [A221, 6-(4-(((2R,3R,4S,5S)-3,4-dihydroxy-5-((6-(trifluoromethyl)pyridin-2-yl)oxy)tetrahydro-2H-pyran-2-yl)methoxy)phenyl)pyridazine-3-carboxylic acid]
28 | < 10 µM | – | OCc1cnc(OC[C@H]2OC[C@H](Nc3cncc(C(F)(F)F)n3)[C@@H](O)[C@H]2O)nc1 [A222, (2R,3R,4R,5S)-2-(((5-(hydroxymethyl)pyrimidin-2-yl)oxy)methyl)-5-((6-(trifluoromethyl)pyrazin-2-yl)amino)tetrahydro-2H-pyran-3,4-diol]
